Measured values taken from patent US20090270416A1, “N-OXIDES OF DIARYLUREA DERIVATIVES AND THEIR USE AS Chk1 INHIBITORS FOR THE TREATMENT OF CANCER” (SENTINEL ONCOLOGY LIMITED, priority 2006, published 2009).

Columns and labels:
CHK1 (h) = target: T1, CHK1 (h) (Homo sapiens, UniProt O14757); assay: Chk-1 kinase inhibiting activity (Upstate radiometric assay); type: biochemical
T1 construct: purchased Upstate Ltd (assay run at Upstate)
T1 sequence (O14757 1-476): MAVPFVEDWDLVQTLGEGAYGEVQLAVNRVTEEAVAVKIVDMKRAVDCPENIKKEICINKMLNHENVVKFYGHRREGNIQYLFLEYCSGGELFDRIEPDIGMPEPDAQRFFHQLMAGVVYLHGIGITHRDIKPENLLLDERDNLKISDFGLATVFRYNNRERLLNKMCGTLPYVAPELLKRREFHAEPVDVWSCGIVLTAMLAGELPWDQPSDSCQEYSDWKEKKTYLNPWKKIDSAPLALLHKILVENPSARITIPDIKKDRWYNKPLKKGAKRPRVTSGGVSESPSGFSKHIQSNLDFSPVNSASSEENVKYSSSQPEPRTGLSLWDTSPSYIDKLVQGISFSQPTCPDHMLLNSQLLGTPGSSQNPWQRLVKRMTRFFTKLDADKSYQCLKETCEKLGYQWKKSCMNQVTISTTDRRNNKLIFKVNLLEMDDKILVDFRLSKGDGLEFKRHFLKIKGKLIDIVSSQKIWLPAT
Procedure: The N-oxide compounds of the invention and their tertiary amine precursors were tested for activity against the Chk-1 kinase.
The Chk-1 assay was conducted at Upstate Ltd, Gemini Crescent, Dundee Technology Park, Dundee, DD2 1 SW, UK in accordance with the protocol set out below. In a final reaction volume of 25 μl, CHK1 (h) (5-10 mU) is incubated with 8 mM MOPS pH 7.0, 0.2 mM EDTA, 200 μM […], 10 mM MgAcetate and γ-33P-ATP] (specific activity approx. 500 cpm/pmol, concentration as required). The reaction is initiated by the addition of the MgATP mix. After incubation for 40 minutes at room temperature, the reaction is stopped by the addition of 5 μl of a 3% phosphoric acid solution. 10 μl of the reaction mixture is then spotted onto a P30 filtermat and washed three times for 5 minutes in 75 mM phosphoric acid and once in methanol prior to drying and scintillation counting.

[1] = target: T2, human potassium channel hERG (Homo sapiens, UniProt Q12809); assay: hERG binding activity ([3H] astemizole displacement, HEK-293 membranes); details: 1.5 nM [3H] astemizole; for IC50: 60 minutes at 25° C.
T2 construct: expressed in transfected cells; host or cells: HEK-293
T2 sequence (Q12809 whole entry): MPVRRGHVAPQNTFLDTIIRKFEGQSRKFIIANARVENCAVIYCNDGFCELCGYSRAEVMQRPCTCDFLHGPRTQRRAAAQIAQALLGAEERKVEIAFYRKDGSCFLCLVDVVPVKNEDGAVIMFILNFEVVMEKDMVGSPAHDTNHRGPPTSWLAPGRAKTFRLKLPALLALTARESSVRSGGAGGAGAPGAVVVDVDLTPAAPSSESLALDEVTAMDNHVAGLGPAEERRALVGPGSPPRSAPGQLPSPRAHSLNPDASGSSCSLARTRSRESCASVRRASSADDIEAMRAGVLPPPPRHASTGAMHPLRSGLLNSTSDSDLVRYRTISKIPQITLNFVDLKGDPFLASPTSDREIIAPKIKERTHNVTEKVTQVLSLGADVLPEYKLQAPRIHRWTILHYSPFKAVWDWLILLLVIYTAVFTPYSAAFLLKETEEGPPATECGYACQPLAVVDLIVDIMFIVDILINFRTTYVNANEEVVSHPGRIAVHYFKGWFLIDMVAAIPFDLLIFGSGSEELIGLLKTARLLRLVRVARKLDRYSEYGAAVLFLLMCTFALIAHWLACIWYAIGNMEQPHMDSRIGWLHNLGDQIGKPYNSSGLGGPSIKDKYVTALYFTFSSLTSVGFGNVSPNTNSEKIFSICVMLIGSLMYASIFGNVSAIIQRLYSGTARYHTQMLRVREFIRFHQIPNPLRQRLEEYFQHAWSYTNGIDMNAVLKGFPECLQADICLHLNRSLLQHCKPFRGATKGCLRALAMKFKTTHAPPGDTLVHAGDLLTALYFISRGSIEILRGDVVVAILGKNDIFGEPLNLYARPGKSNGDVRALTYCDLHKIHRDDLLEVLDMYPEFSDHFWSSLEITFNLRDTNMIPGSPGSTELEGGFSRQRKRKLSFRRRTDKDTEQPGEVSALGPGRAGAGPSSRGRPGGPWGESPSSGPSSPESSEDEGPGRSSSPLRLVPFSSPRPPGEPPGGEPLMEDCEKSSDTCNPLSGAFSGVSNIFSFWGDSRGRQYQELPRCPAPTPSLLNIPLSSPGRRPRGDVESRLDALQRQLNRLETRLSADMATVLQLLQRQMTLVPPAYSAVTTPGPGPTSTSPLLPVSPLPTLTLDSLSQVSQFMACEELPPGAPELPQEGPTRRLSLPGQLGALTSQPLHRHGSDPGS
Procedure: The abilities of the N-oxide compounds of the invention and their tertiary amine precursors were tested using the assay described below.
Human recombinant HEK-293 cells stably transfected with a plasmid encoding the human potassium channel hERG were used to prepare membranes in modified HEPES pH 7.4 buffer using standard techniques. A 10 μg aliquot of membrane was incubated with 1.5 nM [^3H] astemizole in the presence of varying concentrations of test compound for 60 minutes at 25° C. The membranes were then filtered and washed three times and the filters were counted to determine the [^3H] astemizole specifically bound. From the counts, the extent of binding of the test compound and, in some cases, the IC50 values of the test compounds, were determined.

hERG potassium channel = target: T3, hERG potassium channel (Homo sapiens, UniProt Q12809); assay: Functional hERG assay (patch clamp, HEK-293 cells); type: cell-based; details: 5-point dose response, triplicate
T3 construct: expressed in transfected cells; host or cells: HEK-293
T3 sequence (Q12809 whole entry): as above
Procedure: The N-oxide compounds of the invention and their tertiary amine precursors were each tested for hERG inhibiting activity using the method of Zhou Z, Gong Q, Ye B, Fan Z, Makielski J C, Robertson G A, January C T. Biophys J. 1998 January; 74(1):230-41.
Test compounds were tested in triplicate in a 5-point dose response curve on HEK-293 cells stably expressing the hERG potassium channel. Potassium current was measured using the patch clamp technique on a Molecular Devices Patch Express 7000. hERG channels were activated by 2 second pulses to +20 mV from a holding potential of −80 mV, and peak tail currents were recorded upon repolarization to −50 mV. This voltage-clamp pulse protocol was performed continuously during the experiment (vehicle control, test compound, washout, and positive control additions). An interpulse interval of 15 seconds allowed recovery from any residual inactivation. Test compounds were incubated with cells between 3-8 minutes until the current reached a steady state level, defined by a Standard Deviation of 0.01. After the final test compound concentration was tested, test compound was washed out with continuous perfusion of extracellular solution for 3 minutes, followed by application of positive control (10 μM Cisparide).
Test compounds were diluted in 100% DMSO at 1000× the highest concentration to be tested, vortexed, and sonicated. Visual inspection determined that compounds were completely solubilized. Test compounds were then diluted into glass vials in 100% DMSO for all test concentrations at 1000× the final concentration to be tested and vortexed. Test compounds were then diluted 1:1000 into extracellular solution and vortexed to achieve final concentration for testing. Final DMSO concentration was 0.1% for all concentrations of test compounds, Vehicle (negative) control, and Cisapride (positive) control in extracellular solution. The compositions of the solutions used were as follows:
Intracellular Soln (mM): KCl 130, EDTA 5, MgCl2 5, HEPES10, Na-ATP 5, pH=7.2 Extracellular Soln (mM): NaCl 137, KCl 4, CaCl2 1.8, MgCl2 1, Dextrose 11, HEPES 10, pH=7.4

Row | IC50 (CHK1 (h)) [µM] | SMILES | IC50 [1] [µM] | IC50 (hERG potassium channel) [µM] | HERG Binding % @ 100 uM (extent of binding) ([1]; @ 100 uM test compound) [% @ 100 uM]
1 | < 0.01 | CN(C)CCCOc1ccc(Cl)cc1NC(=O)Nc1cnc(C#N)cn1 [Example 3B, 1-[5-Chloro-2-(3-dimethylamino-propoxy)-phenyl]-3-(5-cyano-pyrazin-2-yl)-urea] | 5.12 | 0.435 | 
2 | 0.024 | C[N+](C)([O-])CCCOc1ccc(Cl)cc1NC(=O)Nc1cnc(C#N)cn1 [Example 3C, 1-[5-Chloro-2-(3-dimethyloxyamino-propoxy)-phenyl]-3-(5-cyano-pyrazin-2-yl)-urea] |  | 16.3 | 46
3 | 0.279 | CN(C)CCCOc1ccc(Cl)cc1NC(=O)Nc1ccc(C#N)cn1 [Example 4B, 1-[5-Chloro-2-(3-dimethylamino-propoxy)-phenyl]-3-(5-cyano-pyridin-2-yl)-urea] | 0.445 | 0.13 | 
4 | 0.581 | C[N+](C)([O-])CCCOc1ccc(Cl)cc1NC(=O)Nc1ccc(C#N)cn1 [Example 4C, 1-[5-Chloro-2-(3-dimethyloxylamino-propoxy)-phenyl]-3-(5-cyano-pyridin-2-yl)-urea] | 7.67 | 2.44 | 
